*1 amine or outer side, *2 acyl side, *3 side chain or, on linkers, in order; H or OH if unused. Where a SMILES comes first, the peptide text is derived from it. Bridges are numbered along the chain shown (N, C = ends). [ ]: non-standard residue; d: D form. The star is where a group is joined. hPhe(3,5-F2-4-CF3) = N[C@@H](CCc1cc(F)c(C(F)(F)F)c(F)c1)C(=O)O; X23 = O=C([C@H](Cc1ccc(C(F)(F)F)cc1)N(CC1CCCC1)[*:1])[*:2]; hPhe(3-Cl-4-CF3) = N[C@@H](CCc1ccc(C(F)(F)F)c(Cl)c1)C(=O)O; NPrPhe(4-CF3) = CCCN[C@@H](Cc1ccc(C(F)(F)F)cc1)C(=O)O; hPhe(3,4-Cl2) = N[C@@H](CCc1ccc(Cl)c(Cl)c1)C(=O)O; NEtPhe(4-Me) = CCN[C@@H](Cc1ccc(C)cc1)C(=O)O; NMeGly(cPent) = CN[C@H](C(=O)O)C1CCCC1; Pro(4,4-F2) = O=C(O)[C@@H]1CC(F)(F)CN1; Hyp = O=C(O)[C@@H]1C[C@@H](O)CN1; NMeD = CN[C@@H](CC(=O)O)C(=O)O; Ac4c(3-oxa) = NC1(C(=O)O)COC1; NMeL = CN[C@@H](CC(C)C)C(=O)O; Morpholide = C1CN(*)CCO1; NMeA = CN[C@@H](C)C(=O)O; Ac5c = NC1(C(=O)O)CCCC1; Aze = O=C(O)[C@@H]1CCN1; Ac4c = NC1(C(=O)O)CCC1; Sar = CNCC(=O)O
What was measured:
[1] = target: GDP-bound NRAS wild-type protein (Homo sapiens, UniProt P01111); experiment: Binding to NRAS by surface plasmon resonance (SPR), KD and KD ratio to KRAS
Method in brief: (§1)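 Recombinant RAS proteins bearing a biotinylated Avi tag and loaded with GDP served as the captured ligand, recaptured fresh every cycle. Binding responses were referenced to an uncoated surface and a buffer-only blank cycle. Dissociation constants were obtained by 1:1 model fitting at 30°C.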

[2] = tested on: human lung cancer strain NCI-H441; type: cell-based
Method in brief: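 Signal came from […] measured per well once the reagent was added. Beforehand, cells were cultured at 37°C and 5% carbon dioxide on a compound series serially diluted in dimethyl sulfoxide.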

HRAS wild-type protein = HRAS wild-type protein (Homo sapiens, UniProt P01112); experiment: Binding to HRAS by surface plasmon resonance (SPR), KD and KD ratio to KRAS
Method in brief: as §1

[3] = ratio of the KD value with respect to GDP-bound NRAS wild-type protein to the KD value with respect to KRAS
[4] = ratio of the KD value with respect to HRAS wild-type protein to the KD value with respect to KRAS
[5] = ratio of KD for GDP-bound NRAS wild-type protein to KD for KRAS
[6] = ratio of KD for HRAS wild-type protein to KD for KRAS
[7] = ratio of KD value for GDP-bound NRAS wild-type protein to KD value for KRAS (SPR)
[8] = ratio of KD value for HRAS wild-type protein to KD value for KRAS (SPR)

Sequence of HRAS wild-type protein (P01112 whole entry): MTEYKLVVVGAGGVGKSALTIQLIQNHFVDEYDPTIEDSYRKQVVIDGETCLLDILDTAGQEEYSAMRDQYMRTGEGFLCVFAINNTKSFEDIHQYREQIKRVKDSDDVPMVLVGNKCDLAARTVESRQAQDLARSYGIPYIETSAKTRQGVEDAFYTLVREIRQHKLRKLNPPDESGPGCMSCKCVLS
Sequence of GDP-bound NRAS wild-type protein (P01111 whole entry): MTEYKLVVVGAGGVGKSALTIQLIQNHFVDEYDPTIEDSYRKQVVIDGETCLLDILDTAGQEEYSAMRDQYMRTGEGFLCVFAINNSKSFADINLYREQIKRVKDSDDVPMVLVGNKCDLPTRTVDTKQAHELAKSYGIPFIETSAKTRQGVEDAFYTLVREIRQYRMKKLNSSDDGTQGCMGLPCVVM

Compound	NRAS /KRAS [1, 3]	IC50 [2] [nM]	HRAS /KRAS (HRAS wild-type protein; [4])	NRAS /KRAS [1, 5]	HRAS /KRAS (HRAS wild-type protein; [6])	NRAS /KRAS [1, 7]	HRAS /KRAS (HRAS wild-type protein; [8])
CCCN1C(=O)CN(C)C(=O)CN(C)C(=O)[C@H]([C@@H](C)CC)NC(=O)[C@H](CC(C)C)N(C)C(=O)C[C@@H](C(=O)N(C)C)N(C)C(=O)[C@H](C2CCCC2)N(C)C(=O)C2(CCCC2)NC(=O)[C@@H]2C[C@@H](OCC)CN2C(=O)[C@H](CCc2ccc(C(F)(F)F)c(Cl)c2)NC(=O)CN(C)C(=O)[C@@H]1Cc1ccc(C(F)(F)F)cc1 [PP0415] ([NMeL]I[Sar][Sar][NPrPhe(4-CF3)][Sar][hPhe(3-Cl-4-CF3)][Hyp](Et)[Ac5c][NMeGly(cPent)][NMeD]-NMe2; lactam N-11)	B (a compound having 3 or more and less than 10 is denoted as B)	1.9	B (a compound having 3 or more and less than 10 is denoted as B)	–	–	–	–
CCO[C@@H]1C[C@H]2C(=O)NC3(CCC3)C(=O)N(C)[C@@H](C3CCCC3)C(=O)N(C)[C@H](C(=O)N(C)C)CC(=O)N(C)[C@@H](CC)C(=O)N[C@@H]([C@@H](C)CC)C(=O)N(C)CC(=O)N(C)[C@H]3CCCCN(C3=O)[C@@H](Cc3ccc(C(F)(F)F)cc3)C(=O)N(C)CC(=O)N[C@@H](CCc3ccc(OC(F)F)c(F)c3)C(=O)N2C1 [PP0986]	–	45.9	–	C (A compound having a KD ratio of 0.1 or more and less than 3 is denoted as C)	C (A compound having a KD ratio of 0.1 or more and less than 3 is denoted as C)	–	–
CCO[C@@H]1C[C@H]2C(=O)NC3(CC(C)(C)C3)C(=O)N(C)[C@@H](C3CCCC3)C(=O)N(C)[C@H](C(=O)N(C)C)CC(=O)N(C)[C@H]3CCCC/C=C/c4ccc(cc4)C[C@@H](C(=O)N(C)CC(=O)N[C@@H](CCc4cc(F)c(C(F)(F)F)c(F)c4)C(=O)N2C1)N1CC/C=C\C[C@@H](C1=O)N(C)C(=O)CN(C)C(=O)[C@H]([C@@H](C)CC)NC3=O [PP1831]	–	3	–	–	–	A (a compound having 10 or more and less than 20 is denoted as A)	A (a compound having 10 or more and less than 20 is denoted as A)
CCC[C@H]1C(=O)N[C@@H]([C@@H](C)CC)C(=O)N(C2CC2)CC(=O)N(C)[C@H]2C/C=C\CCN(C2=O)[C@@H](Cc2ccc(C)cc2)C(=O)N(C)CC(=O)N[C@@H](CCc2cc(F)c(C(F)(F)F)c(F)c2)C(=O)N2C[C@H](OCC)C[C@H]2C(=O)NC2(CC(C)(C)C2)C(=O)N(C)[C@@H](C2CCCC2)C(=O)N(C)[C@H](C(=O)N(C)C)CC(=O)N1C [PP2093]	A (a compound having 10 or more and less than 20 is denoted as A)	7.4	A (a compound having 10 or more and less than 20 is denoted as A)	–	–	–	–
CC[C@H](C)[C@@H]1NC(=O)[C@H](CC(C)C)N(C)C(=O)C[C@@H](C(=O)N2CCOCC2)N(C)C(=O)[C@H](C2CCCC2)N(C)C(=O)C2(CCCC2)NC(=O)[C@@H]2CCCN2C(=O)[C@H](CCc2ccc(C(F)(F)F)c(Cl)c2)NC(=O)CN(C)C(=O)[C@H](Cc2ccc(C(F)(F)F)cc2)N(CC2CCCC2)C(=O)[C@@H]2CCN2C(=O)[C@H](C)N(C)C1=O [PP0110] ([NMeL]I[NMeA][Aze][X23][Sar][hPhe(3-Cl-4-CF3)]P[Ac5c][NMeGly(cPent)][NMeD]-Morpholide; lactam N-11)	–	56.5	–	C (A compound having a KD ratio of 0.1 or more and less than 3 is denoted as C)	B (a compound having 3 or more and less than 10 is denoted as B)	–	–
CCO[C@@H]1C[C@H]2C(=O)NC3(CC(C)(C)C3)C(=O)N(C)[C@@H](C(CC)CC)C(=O)N(C)[C@H](C(=O)N3CCCC3)CC(=O)N(C)[C@@H](COC)C(=O)N[C@@H]([C@@H](C)CC)C(=O)N(C)CC(=O)N(C)[C@H]3C/C=C\CCN(C3=O)[C@@H](Cc3ccc(C(F)(F)F)cc3)C(=O)N(C)CC(=O)N[C@@H](CCc3ccc(C(F)(F)F)c(Cl)c3)C(=O)N2C1 [PP2128]	AA (a compound having 20 or more is denoted as AA)	14.8	A (a compound having 10 or more and less than 20 is denoted as A)	–	–	–	–
CCCN1C(=O)[C@@H]2CCN2C(=O)CN(C)C(=O)[C@H]([C@@H](C)CC)NC(=O)[C@H](CC(C)C)N(C)C(=O)C[C@@H](C(=O)N2CCOCC2)N(C)C(=O)[C@H](C2CCCC2)N(C)C(=O)C2(CCC2)NC(=O)[C@@H]2CC(F)(F)CN2C(=O)[C@H](CCc2ccc(C(F)(F)F)c(Cl)c2)NC(=O)CN(C)C(=O)[C@@H]1Cc1ccc(C(F)(F)F)cc1 [PP0409] ([NMeL]I[Sar][Aze][NPrPhe(4-CF3)][Sar][hPhe(3-Cl-4-CF3)][Pro(4,4-F2)][Ac4c][NMeGly(cPent)][NMeD]-Morpholide; lactam N-11)	C (A compound having a KD ratio of 0.1 or more and less than 3 is denoted as C)	4.4	C (A compound having a KD ratio of 0.1 or more and less than 3 is denoted as C)	–	–	–	–
CCO[C@@H]1C[C@H]2C(=O)NC3(CCC3)C(=O)N(C)[C@@H](C3CCCC3)C(=O)N(C)[C@H](C(=O)N3CCOCC3)CC(=O)N(C)[C@@H](CC(C)C)C(=O)N[C@@H]([C@@H](C)CC)C(=O)N(C)CC(=O)N(C)[C@H]3C[C@@H](C)CCN(C3=O)[C@@H](Cc3ccc(C(F)(F)F)cc3)C(=O)N(C)CC(=O)N[C@@H](CCc3cc(F)c(C(F)(F)F)c(F)c3)C(=O)N2C1 [PP1025]	–	10.7	–	C (A compound having a KD ratio of 0.1 or more and less than 3 is denoted as C)	B (a compound having 3 or more and less than 10 is denoted as B)	–	–
CC[C@H](C)[C@@H]1NC(=O)[C@H](CC2CC2)N(C)C(=O)C[C@@H](C(=O)N(C)C)N(C)C(=O)[C@H](C2CCCC2)N(C)C(=O)C2(CCC2)NC(=O)[C@@H]2C[C@@H](C)CN2C(=O)[C@H](CCc2ccc(C(F)(F)F)c(OC)c2)NC(=O)CN(C)C(=O)[C@H](Cc2ccc(C)cc2)N2CC/C=C\C[C@@H](C2=O)N(C)C(=O)CN(C)C1=O [PP1863]	–	88.8	–	–	–	A (a compound having 10 or more and less than 20 is denoted as A)	A (a compound having 10 or more and less than 20 is denoted as A)
CCCN1C(=O)[C@@H]2CCN2C(=O)CN(C)C(=O)[C@H]([C@@H](C)CC)NC(=O)[C@H](CC(C)C)N(C)C(=O)C[C@@H](C(=O)N2CCOCC2)N(C)C(=O)[C@H](C2CCCC2)N(C)C(=O)C2(COC2)NC(=O)[C@@H]2CCCN2C(=O)[C@H](CCc2cc(F)c(C(F)(F)F)c(F)c2)NC(=O)CN(C)C(=O)[C@@H]1Cc1ccc(C(F)(F)F)cc1 [PP0801] ([NMeL]I[Sar][Aze][NPrPhe(4-CF3)][Sar][hPhe(3,5-F2-4-CF3)]P[Ac4c(3-oxa)][NMeGly(cPent)][NMeD]-Morpholide; lactam N-11)	–	28.7	–	C (A compound having a KD ratio of 0.1 or more and less than 3 is denoted as C)	B (a compound having 3 or more and less than 10 is denoted as B)	–	–
CCC[C@H]1C(=O)N[C@@H]([C@@H](C)CC)C(=O)N(C)CC(=O)N(C)[C@H]2C/C=C\CCN(C2=O)[C@@H](Cc2ccc(C)cc2)C(=O)N(C)CC(=O)N[C@@H](CCc2ccc(C(F)(F)F)c(OC)c2)C(=O)N2C[C@H](C)C[C@H]2C(=O)NC2(CC(C)(C)C2)C(=O)N(C)[C@@H](C2CCCC2)C(=O)N(C)[C@H](C(=O)N(C)CC)CC(=O)N1C [PP1891]	–	2.6	–	–	–	A (a compound having 10 or more and less than 20 is denoted as A)	A (a compound having 10 or more and less than 20 is denoted as A)
CCCOC[C@H]1C(=O)N[C@@H]([C@@H](C)CC)C(=O)N(C)CC(=O)N(C)[C@H]2C/C=C\CCN(C2=O)[C@@H](Cc2ccc(C(F)(F)F)cc2)C(=O)N(C)CC(=O)N[C@@H](CCc2ccc(C(F)(F)F)c(Cl)c2)C(=O)N2C[C@H](OCC)C[C@H]2C(=O)NC2(CC(C)(C)C2)C(=O)N(C)[C@@H](C2CCCC2)C(=O)N(C)[C@H](C(=O)N(C)C)CC(=O)N1C [PP1754]	–	3	–	–	–	A (a compound having 10 or more and less than 20 is denoted as A)	A (a compound having 10 or more and less than 20 is denoted as A)
CCCN1C(=O)[C@@H]2CCN2C(=O)[C@H](C)N(C)C(=O)[C@H]([C@@H](C)CC)NC(=O)[C@H](CC(C)C)N(C)C(=O)C[C@@H](C(=O)N2CCOCC2)N(C)C(=O)[C@H](C2CCCC2)N(C)C(=O)C2(CCCC2)NC(=O)[C@@H]2CCCN2C(=O)[C@H](CCc2ccc(Cl)c(Cl)c2)NC(=O)CN(C)C(=O)[C@@H]1Cc1ccc(C(F)(F)F)cc1 [PP0227] ([NMeL]I[NMeA][Aze][NPrPhe(4-CF3)][Sar][hPhe(3,4-Cl2)]P[Ac5c][NMeGly(cPent)][NMeD]-Morpholide; lactam N-11)	–	4.1	–	C (A compound having a KD ratio of 0.1 or more and less than 3 is denoted as C)	B (a compound having 3 or more and less than 10 is denoted as B)	–	–
CC[C@H](C)[C@@H]1NC(=O)[C@H](CC(C)C)N(C)C(=O)C[C@@H](C(=O)N2CCOCC2)N(C)C(=O)[C@H](CC(C)C)N(C)C(=O)C2(CCCC2)NC(=O)[C@@H]2CCCN2C(=O)[C@H](CCc2ccc(C(F)(F)F)c(Cl)c2)NC(=O)CN(C)C(=O)[C@H](Cc2ccc(C)cc2)N(CC)C(=O)CN(C)C(=O)CN(C)C1=O [PP0045] ([NMeL]I[Sar][Sar][NEtPhe(4-Me)][Sar][hPhe(3-Cl-4-CF3)]P[Ac5c][NMeL][NMeD]-Morpholide; lactam N-11)	–	292	–	C (A compound having a KD ratio of 0.1 or more and less than 3 is denoted as C)	C (A compound having a KD ratio of 0.1 or more and less than 3 is denoted as C)	–	–

— patent EP4603105A1, “PHARMACEUTICAL COMPOSITION CONTAINING CYCLIC COMPOUND HAVING SELECTIVE KRAS INHIBITORY EFFECT AGAINST HRAS AND NRAS” (CHUGAI SEIYAKU KABUSHIKI KAISHA, priority 2022, dated 2024)
